The test system of the assay is BSS1-GFP. Description: Fluorescence microscopy of punctate BSS1-GFP in transgenic seedlings. It is filed as in vivo, Arabidopsis thaliana. The note with it: root cells of BSS1-GFP plants treated with 50 μM BFA for 1 hour. The method, then: FIGS. 5C to 5E show analysis of BSS1-GFP puncta signal intensities upon treatment with Brz and BL. Seven-day-old BSS1-GFP transgenic seedlings were treated for 3 hours with 3 μM Brz (Brz), an equal volume of DMSO (Mock), or 100 μM BL (BL). […] The results are represented as the mean±s.d. The signal intensity was measured using ImageJ software. […]
The plants that were transformed with the CaMV35S-BSS1-GFP construct BSS1(-GFP)-OX and the CaMV35S-BIL1-GFP construct BIL1-GFP-OX were observed via confocal laser scanning microscopy with a BX60 fluorescence microscope (Olympus) equipped with a Model CSU10 confocal scanner (Yokogawa Electric) and LSM700 (Zeiss).
FM4-64 (Molecular Probes) dissolved in water was applied to Arabidopsis plants at a final concentration of 4 μM for 3 minutes. The plants were washed with water to remove the excessive amount of the stain and observed. A DMSO-base stock solution of Brefeldin A (BFA) (Sigma) was applied to the cells at a final concentration of 50 μM for 1 hour.
The images were analyzed using ImageJ software. To measure the ratio of the nuclear and cytosolic signals of BIL1-GFP for each cell, the signal intensities in the nucleus and cytosol were calculated from the mean of the intensity in each area. The nuclear to cytosolic signal ratio was then calculated for each cell. The average nuclear/cytosolic signal ratio and standard error were calculated from measurements of at least 54 cells from each line (FIG. 9B). Line scan measurements from the vacuole to the nucleus through the cytosol were performed, and representative plot profiles of sample measurements are presented in FIG. 5C.

Each structure is given as a SMILES string.

Take `C[C@H]1CCC/C=C/[C@@H]2C[C@H](O)C[C@H]2[C@H](O)/C=C/C(=O)O1` [BFA, Brefeldin A]: the “formation of punctate BSS1” value is on record as “not inhibited”.
